The text below walks through data of PubChem BioAssay (NCI).

Where “and” joins values, the source holds several entries; their conditions need not be identical. Equal values may be shown once.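 Assay format: 96-well plates, 48-hour exposure. GI50 = concentration required for 50% inhibition of growth. TGI denotes the concentration required for complete inhibition of growth.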 Bounds are passed on as bounds.

Among the test systems are MALME-3M melanoma; K-562 leukemia; SF-268 CNS; SK-MEL-5 melanoma; COLO 205 colon; SR leukemia; IGROV1 ovarian; SF-295 CNS; CCRF-CEM leukemia; OVCAR-5 ovarian; OVCAR-3 ovarian; UACC-257 melanoma; MOLT-4 leukemia; KM20L2 colon.
Holding throughout (assay): growth of human tumour cells (NCI), 48 h

For `C[C@H]1SC(c2ccc(Cl)cc2Cl)N(NC(=O)c2ccncc2)C1=O` (stereo partly drawn), the TGI was greater than 100 µM in the experiment on MALME-3M melanoma; greater than 100 µM with K-562 leukemia; 72.3 µM in the experiment on SF-268 CNS; 37 µM with SK-MEL-5 melanoma; greater than 100 µM with COLO 205 colon; greater than 100 µM with SR leukemia. The TGI in the experiment on IGROV1 ovarian, in the experiment with SF-295 CNS, with CCRF-CEM leukemia, in the experiment on OVCAR-5 ovarian and in the experiment on OVCAR-3 ovarian was greater than 100 µM throughout.
In the case of `CN(C)CCNC(=O)c1cccc2nc(-c3ccccc3)oc12`, the TGI in the experiment with UACC-257 melanoma is 98.1 µM; in the experiment on MALME-3M melanoma, 99 µM; in the experiment on K-562 leukemia, greater than 100 µM; in the experiment on SF-268 CNS it was greater than 100 µM; in the experiment with SK-MEL-5 melanoma it was 59.6 µM; with COLO 205 colon, 42.8 µM. Further, the TGI in the experiment with MOLT-4 leukemia was greater than 89.5 µM; in the experiment with IGROV1 ovarian, greater than 100 µM; in the experiment on SF-295 CNS, greater than 100 µM; in the experiment with CCRF-CEM leukemia it was greater than 100 µM; with OVCAR-5 ovarian it was greater than 100 µM; in the experiment on OVCAR-3 ovarian, greater than 100 µM. In the experiment on KM20L2 colon, this compound registered a TGI greater than 100 µM.
As to `CCOC(=O)/C(O)=C1\C(=O)N(C)C(=O)C1c1cccc(OC)c1` (stereo not drawn), the TGI in the experiment on UACC-257 melanoma, in the experiment on MALME-3M melanoma, with K-562 leukemia, in the experiment with SF-268 CNS, in the experiment on SK-MEL-5 melanoma and with COLO 205 colon was greater than 100 µM in each case. Besides, the TGI in the experiment with MOLT-4 leukemia was greater than 100 µM; in the experiment on IGROV1 ovarian it was greater than 100 µM; in the experiment on SF-295 CNS it was greater than 100 µM; in the experiment with CCRF-CEM leukemia, greater than 100 µM; with OVCAR-5 ovarian, greater than 100 µM; with OVCAR-3 ovarian, greater than 82.1 µM. In the experiment on KM20L2 colon, this compound registered a TGI greater than 100 µM.
Consider `CC(=O)OCc1c(O)c2c(c(O)c1COC(C)=O)C(=O)C=CC2=O`, for which the TGI is 20.1 µM in the experiment with UACC-257 melanoma; 20.5 µM with MALME-3M melanoma; greater than 100 µM with K-562 leukemia; 30.8 µM with SF-268 CNS; 28.5 µM in the experiment on SK-MEL-5 melanoma; 10.5 µM with COLO 205 colon. Besides, the TGI is greater than 100 µM in the experiment with SR leukemia; 15.1 µM in the experiment with MOLT-4 leukemia; 30.5 µM in the experiment with IGROV1 ovarian; 27.4 µM in the experiment on SF-295 CNS; 13.7 µM in the experiment with CCRF-CEM leukemia; 30.9 µM with OVCAR-5 ovarian. In addition, the results for the TGI in the experiment on OVCAR-3 ovarian and in the experiment on KM20L2 colon were 22.1 µM and 32.7 µM, respectively.
As for `CCCSc1nc(-c2ccc(OC)cc2)c(C#N)c(=O)n1C1OC(COC(C)=O)C(OC(C)=O)C(OC(C)=O)C1OC(C)=O` (stereo not drawn), the GI50 in the experiment on UACC-257 melanoma was > 100 µM and 22.4 µM; in the experiment with MALME-3M melanoma, > 100 µM and 32.3 µM; in the experiment on IGROV1 ovarian it was > 100 µM and 43.4 µM; in the experiment on SF-295 CNS it was > 100 µM and 24.3 µM; with OVCAR-5 ovarian it was > 100 µM and 21.2 µM; in the experiment on OVCAR-3 ovarian, > 100 µM and 35.3 µM. In addition, the TGI was > 100 µM and 56.6 µM in the experiment with UACC-257 melanoma; greater than 100 µM with MALME-3M melanoma; greater than 100 µM with K-562 leukemia; greater than 100 µM in the experiment on SF-268 CNS; greater than 100 µM in the experiment with COLO 205 colon; greater than 100 µM with SR leukemia. The TGI is greater than 100 µM in the experiment with MOLT-4 leukemia; greater than 100 µM with IGROV1 ovarian; > 100 µM and 92.6 µM in the experiment on SF-295 CNS; greater than 100 µM in the experiment with CCRF-CEM leukemia; > 100 µM and 48.8 µM in the experiment with OVCAR-5 ovarian; greater than 100 µM in the experiment with OVCAR-3 ovarian. In the experiment with KM20L2 colon, this compound returned a TGI greater than 100 µM.
In the case of `O=c1cc(-c2cc(O)c(O)c(-c3c(O)cc4oc(-c5ccc(O)c(O)c5)cc(=O)c4c3O)c2)oc2cc(O)cc(O)c12`, the TGI with UACC-257 melanoma, in the experiment with MALME-3M melanoma, in the experiment on K-562 leukemia, in the experiment with SF-268 CNS, with SK-MEL-5 melanoma and with COLO 205 colon was greater than 25 µM throughout. In addition, the TGI with SR leukemia, in the experiment on MOLT-4 leukemia, in the experiment on IGROV1 ovarian, with SF-295 CNS, with CCRF-CEM leukemia and in the experiment on OVCAR-5 ovarian was greater than 25 µM throughout. This compound also registered a TGI in the experiment with OVCAR-3 ovarian greater than 25 µM.
